Test results taken from US20040087633A1, “Methylidene oxazolidinone compound and preparation method thereof” (Korea Institute of Science and Technology, priority 2002, published 2004).
Converted amounts (≈) assume the structure as drawn.

Experiments:
Assay in all cases: Anti-microbial activity test in vitro (agar dilution MIC)
[1] = test system: VRE C6488; type: cell-based, Enterococcus faecium; settings: VRE C6488; Agar Dilution method, Mueller Hinton Agar, 18 hours at 37° C.
Method: (§1) Anti-microbial activity test in vitro
(§2) Strains were cultivated for 18 hours at 37° C. in Agar Dilution method using Mueller Hinton Agar, and then plane plates inoculated with the strains by diluting them two times gradually were aligned in a row. Minimum inhibition concentration (MIC, μg/ml) for the representative compounds of the present invention, Linezolid (LZD) and vancomycin (VAN) were decided through visual observation, and the results are shown in the following tables 2 and 3.

[2] = test system: VRE C6487; type: cell-based, Enterococcus faecium; settings: VRE C6487; Agar Dilution method, Mueller Hinton Agar, 18 hours at 37° C.
Method: as §1, §2

[3] = test system: S. epidermidis ATCC12228; type: cell-based; settings: S. epidermidis ATCC12228; Agar Dilution method, Mueller Hinton Agar, 18 hours at 37° C.
Method: as §1, §2

[4] = test system: E. faecalis C6288; type: cell-based; settings: E. faecalis C6288; Agar Dilution method, Mueller Hinton Agar, 18 hours at 37° C.
Method: as §1, §2

[5] = test system: S. pyogenes ATCC8668; type: cell-based; settings: S. pyogenes ATCC8668; Agar Dilution method, Mueller Hinton Agar, 18 hours at 37° C.
Method: as §1, §2

[6] = test system: S. pyogenes C6003; type: cell-based; settings: S. pyogenes C6003; Agar Dilution method, Mueller Hinton Agar, 18 hours at 37° C.
Method: as §1, §2

[7] = test system: E. faecium C6301; type: cell-based; settings: E. faecium C6301; Agar Dilution method, Mueller Hinton Agar, 18 hours at 37° C.
Method: as §1, §2

[8] = test system: E. faecalis C6291; type: cell-based; settings: E. faecalis C6291; Agar Dilution method, Mueller Hinton Agar, 18 hours at 37° C.
Method: as §1, §2

[9] = test system: S. aureus ATCC 29213; type: cell-based; settings: Agar Dilution method, Mueller Hinton Agar, 18 hours at 37° C.
Method: as §1, §2

[10] = test system: E. faecalis ATCC29212; type: cell-based; settings: E. faecalis ATCC29212; Agar Dilution method, Mueller Hinton Agar, 18 hours at 37° C.
Method: as §1, §2

[11] = test system: S. epidermidis C2230; type: cell-based; settings: S. epidermidis C2230; Agar Dilution method, Mueller Hinton Agar, 18 hours at 37° C.
Method: as §1, §2

[12] = test system: S. pyogenes C6012; type: cell-based; settings: S. pyogenes C6012; Agar Dilution method, Mueller Hinton Agar, 18 hours at 37° C.
Method: as §1, §2

[13] = test system: S. epidermidis C2235; type: cell-based; settings: S. epidermidis C2235; Agar Dilution method, Mueller Hinton Agar, 18 hours at 37° C.
Method: as §1, §2

[14] = test system: E. faecium C2252; type: cell-based; settings: E. faecium C2252; Agar Dilution method, Mueller Hinton Agar, 18 hours at 37° C.
Method: as §1, §2

[15] = test system: MRSA C2207; type: cell-based, Staphylococcus aureus; settings: MRSA C2207; Agar Dilution method, Mueller Hinton Agar, 18 hours at 37° C.
Method: as §1, §2

[16] = test system: CRSA C6043; type: cell-based, Staphylococcus aureus; settings: CRSA C6043; Agar Dilution method, Mueller Hinton Agar, 18 hours at 37° C.
Method: as §1, §2

[17] = test system: MRSA C6068; type: cell-based, Staphylococcus aureus; settings: MRSA C6068; Agar Dilution method, Mueller Hinton Agar, 18 hours at 37° C.
Method: as §1, §2

[18] = test system: MRSA C5100; type: cell-based, Staphylococcus aureus; settings: MRSA C5100; Agar Dilution method, Mueller Hinton Agar, 18 hours at 37° C.
Method: as §1, §2

[19] = test system: MSSA C2214; type: cell-based, Staphylococcus aureus; settings: MSSA C2214; Agar Dilution method, Mueller Hinton Agar, 18 hours at 37° C.
Method: as §1, §2

[20] = test system: CRSA C1062; type: cell-based, Staphylococcus aureus; settings: CRSA C1062; Agar Dilution method, Mueller Hinton Agar, 18 hours at 37° C.
Method: as §1, §2

[21] = test system: MSSA C7142; type: cell-based, Staphylococcus aureus; settings: MSSA C7142; Agar Dilution method, Mueller Hinton Agar, 18 hours at 37° C.
Method: as §1, §2

Row | Minimum inhibition concentration (MIC) [1] | Minimum inhibition concentration (MIC) [2] | Minimum inhibition concentration (MIC) [3] | Minimum inhibition concentration (MIC) [4] | Minimum inhibition concentration (MIC) [5] | Minimum inhibition concentration (MIC) [6] | Minimum inhibition concentration (MIC) [7] | Minimum inhibition concentration (MIC) [8] | Minimum inhibition concentration (MIC) [9] | Minimum inhibition concentration (MIC) [10] | Minimum inhibition concentration (MIC) [11] | Minimum inhibition concentration (MIC) [12] | Minimum inhibition concentration (MIC) [13] | Minimum inhibition concentration (MIC) [14] | Minimum inhibition concentration (MIC) [15] | Minimum inhibition concentration (MIC) [16] | Minimum inhibition concentration (MIC) [17] | Minimum inhibition concentration (MIC) [18] | Minimum inhibition concentration (MIC) [19] | Minimum inhibition concentration (MIC) [20] | Compound | further results
1 | 16 µg/mL (≈ 32.2 µM) | 16 µg/mL (≈ 32.2 µM) | 4 µg/mL (≈ 8.06 µM) | 16 µg/mL (≈ 32.2 µM) | 2 µg/mL (≈ 4.03 µM) | 16 µg/mL (≈ 32.2 µM) | 16 µg/mL (≈ 32.2 µM) | 16 µg/mL (≈ 32.2 µM) | 32 µg/mL (≈ 64.4 µM) | 16 µg/mL (≈ 32.2 µM) | 8 µg/mL (≈ 16.1 µM) | 4 µg/mL (≈ 8.06 µM) | 8 µg/mL (≈ 16.1 µM) | 16 µg/mL (≈ 32.2 µM) | 32 µg/mL (≈ 64.4 µM) | 16 µg/mL (≈ 32.2 µM) | 16 µg/mL (≈ 32.2 µM) | 16 µg/mL (≈ 32.2 µM) | 16 µg/mL (≈ 32.2 µM) | 32 µg/mL (≈ 64.4 µM) | CC(=O)NC[C@H]1CN(c2ccc(N3CCC(=Cc4cc(-c5cccs5)no4)CC3)c(F)c2)C(=O)O1 [Compound 9, N-[[(5S)-3-[3-fluoro-4-((4-(3-thiophen-2-yl-5-isoxazolyl)-methylidene)piperidinyl)phenyl]-2-oxo-5-oxazolidinyl]methyl]acetamide] | Minimum inhibition concentration (MIC) [21]: 32 µg/mL (≈ 64.4 µM)
2 | 2 µg/mL (≈ 4.5 µM) | 2 µg/mL (≈ 4.5 µM) | 1 µg/mL (≈ 2.25 µM) | 4 µg/mL (≈ 9 µM) | 1 µg/mL (≈ 2.25 µM) | 4 µg/mL (≈ 9 µM) | 2 µg/mL (≈ 4.5 µM) | 4 µg/mL (≈ 9 µM) | 4 µg/mL (≈ 9 µM) | 4 µg/mL (≈ 9 µM) | 2 µg/mL (≈ 4.5 µM) | 1 µg/mL (≈ 2.25 µM) | 2 µg/mL (≈ 4.5 µM) | 4 µg/mL (≈ 9 µM) | 4 µg/mL (≈ 9 µM) | 4 µg/mL (≈ 9 µM) | 4 µg/mL (≈ 9 µM) | 4 µg/mL (≈ 9 µM) | 4 µg/mL (≈ 9 µM) | 4 µg/mL (≈ 9 µM) | CCOC(=O)C(C#N)=C1CCN(c2ccc(N3C[C@H](CNC(C)=O)OC3=O)cc2F)CC1 [Compound 7, N-[[(5S)-3-[3-fluoro-4-((4-(1-ethoxycarbonyl-1-cyano)-methylidene)piperidinyl)phenyl]-2-oxo-5-oxazolidinyl]methyl]acetamide] | Minimum inhibition concentration (MIC) [21]: 4 µg/mL (≈ 9 µM)
3 | 4 µg/mL (≈ 10.2 µM) | 4 µg/mL (≈ 10.2 µM) | 2 µg/mL (≈ 5.11 µM) | 4 µg/mL (≈ 10.2 µM) | 2 µg/mL (≈ 5.11 µM) | 8 µg/mL (≈ 20.4 µM) | 4 µg/mL (≈ 10.2 µM) | 8 µg/mL (≈ 20.4 µM) | 8 µg/mL (≈ 20.4 µM) | 8 µg/mL (≈ 20.4 µM) | 4 µg/mL (≈ 10.2 µM) | 2 µg/mL (≈ 5.11 µM) | 4 µg/mL (≈ 10.2 µM) | 4 µg/mL (≈ 10.2 µM) | 16 µg/mL (≈ 40.9 µM) | 8 µg/mL (≈ 20.4 µM) | 4 µg/mL (≈ 10.2 µM) | 8 µg/mL (≈ 20.4 µM) | 16 µg/mL (≈ 40.9 µM) | 16 µg/mL (≈ 40.9 µM) | CC(=O)NC[C@H]1CN(c2ccc(N3CCC(=CC(C)O)CC3)c(F)c2)C(=O)O1 (stereo partly drawn) [Compound 22, N-[[(5S)-3-[3-fluoro-4-(4-(2-hydroxypropylidene)-piperidinyl)-phenyl]-2-oxo-5-oxazolidinyl]methyl]acetamide] | Minimum inhibition concentration (MIC) [21]: 16 µg/mL (≈ 40.9 µM)
4 | 4 µg/mL (≈ 10.2 µM) | 4 µg/mL (≈ 10.2 µM) | 1 µg/mL (≈ 2.56 µM) | 4 µg/mL (≈ 10.2 µM) | 2 µg/mL (≈ 5.12 µM) | 4 µg/mL (≈ 10.2 µM) | 4 µg/mL (≈ 10.2 µM) | 4 µg/mL (≈ 10.2 µM) | 8 µg/mL (≈ 20.5 µM) | 8 µg/mL (≈ 20.5 µM) | 4 µg/mL (≈ 10.2 µM) | 1 µg/mL (≈ 2.56 µM) | 4 µg/mL (≈ 10.2 µM) | 4 µg/mL (≈ 10.2 µM) | 8 µg/mL (≈ 20.5 µM) | 8 µg/mL (≈ 20.5 µM) | 4 µg/mL (≈ 10.2 µM) | 4 µg/mL (≈ 10.2 µM) | 8 µg/mL (≈ 20.5 µM) | 8 µg/mL (≈ 20.5 µM) | CC(=O)NC[C@H]1CN(c2ccc(N3CCC(=CC=NO)CC3)c(F)c2)C(=O)O1 [Compound 18, N-[[(5S)-3-[3-fluoro-4-(4-(2-hydroxyiminoethylidene)-piperidinyl)phenyl]-2-oxo-5-oxazolidinyl]methyl]acetamide] | Minimum inhibition concentration (MIC) [21]: 8 µg/mL (≈ 20.5 µM)

Row | Compound | Minimum inhibition concentration (MIC) [1] | Minimum inhibition concentration (MIC) [2] | Minimum inhibition concentration (MIC) [3] | Minimum inhibition concentration (MIC) [4] | Minimum inhibition concentration (MIC) [5] | Minimum inhibition concentration (MIC) [6] | Minimum inhibition concentration (MIC) [7] | Minimum inhibition concentration (MIC) [8] | Minimum inhibition concentration (MIC) [9] | Minimum inhibition concentration (MIC) [10] | Minimum inhibition concentration (MIC) [11] | Minimum inhibition concentration (MIC) [12] | Minimum inhibition concentration (MIC) [13] | Minimum inhibition concentration (MIC) [14] | Minimum inhibition concentration (MIC) [15] | Minimum inhibition concentration (MIC) [16] | Minimum inhibition concentration (MIC) [17] | Minimum inhibition concentration (MIC) [18] | Minimum inhibition concentration (MIC) [19] | Minimum inhibition concentration (MIC) [20] | further results
5 | CC(=O)NC[C@H]1CN(c2ccc(N3CCC(=CC(C)OC(=O)C(Cl)Cl)CC3)c(F)c2)C(=O)O1 (stereo partly drawn) [Compound 25, N-[[(5S)-3-[3-fluoro-4-(4-(2-(dichloroacetoxy)propylidene)-piperidinyl)-phenyl]-2-oxo-5-oxazolidinyl]methyl]acetamide] | 4 µg/mL (≈ 7.96 µM) | 4 µg/mL (≈ 7.96 µM) | 2 µg/mL (≈ 3.98 µM) | 8 µg/mL (≈ 15.9 µM) | 2 µg/mL (≈ 3.98 µM) | 8 µg/mL (≈ 15.9 µM) | 8 µg/mL (≈ 15.9 µM) | 8 µg/mL (≈ 15.9 µM) | 16 µg/mL (≈ 31.8 µM) | 8 µg/mL (≈ 15.9 µM) | 8 µg/mL (≈ 15.9 µM) | 2 µg/mL (≈ 3.98 µM) | 8 µg/mL (≈ 15.9 µM) | 8 µg/mL (≈ 15.9 µM) | 16 µg/mL (≈ 31.8 µM) | 16 µg/mL (≈ 31.8 µM) | 8 µg/mL (≈ 15.9 µM) | 8 µg/mL (≈ 15.9 µM) | 16 µg/mL (≈ 31.8 µM) | 16 µg/mL (≈ 31.8 µM) | Minimum inhibition concentration (MIC) [21]: 16 µg/mL (≈ 31.8 µM)
